Columns and labels:
[1] = refractive index (Na D-line) (dimensionless); wn = mass fraction of the nth substance listed; details: 100 kPa, Liquid, Standard Abbe refractometry
[2] = wn = mass fraction of the nth substance listed; details: for surface tension liquid-gas: Maximal bubble pressure; for mass density: 100 kPa, Liquid, Vibrating tube method

CCCn1cc[n+](C)c1.C[C@@H](O)[C@H](N)C(=O)[O-] [1-propyl-3-methylimidazolium DL-threoninate] + O
Details	mass density, [2] [kg/m3]	refractive index, [1]	surface tension liquid-gas, [2] [mN/m]
288.15 K, w2 = 0.0065	1150.46	1.5132	42
288.15 K, w2 = 0.0092	1150.15	1.5127	42.2
288.15 K, w2 = 0.0116	1149.81	1.5121	42.4
288.15 K, w2 = 0.0135	1149.56	1.5117	42.6
288.15 K, w2 = 0.0161	1149.22	1.5111	42.8
293.15 K, w2 = 0.0065	1147.75	1.5116	41.7
293.15 K, w2 = 0.0092	1147.33	1.5111	41.9
293.15 K, w2 = 0.0116	1146.94	1.5105	42.1
293.15 K, w2 = 0.0135	1146.61	1.5101	42.3
293.15 K, w2 = 0.0161	1146.22	1.5095	42.5
298.15 K, w2 = 0.0065	1143.37	1.5101	41.3
298.15 K, w2 = 0.0092	1142.89	1.5096	41.6
298.15 K, w2 = 0.0116	1142.43	1.509	41.8
298.15 K, w2 = 0.0135	1142.12	1.5086	42
298.15 K, w2 = 0.0161	1141.66	1.508	42.2
303.15 K, w2 = 0.0065	1139.97	1.5088	41
303.15 K, w2 = 0.0092	1139.49	1.5082	41.3
303.15 K, w2 = 0.0116	1139.07	1.5077	41.5
303.15 K, w2 = 0.0135	1138.7	1.5073	41.7
303.15 K, w2 = 0.0161	1138.27	1.5068	41.9
308.15 K, w2 = 0.0065	1136.59	1.5074	40.7
308.15 K, w2 = 0.0092	1136.11	1.5069	41
308.15 K, w2 = 0.0116	1135.68	1.5064	41.2
308.15 K, w2 = 0.0135	1135.31	1.5061	41.4
308.15 K, w2 = 0.0161	1134.87	1.5056	41.6
313.15 K, w2 = 0.0065	1133.16	1.506	40.4
313.15 K, w2 = 0.0092	1132.71	1.5055	40.7
313.15 K, w2 = 0.0116	1132.22	1.5052	40.9
313.15 K, w2 = 0.0135	1131.88	1.5048	41.1
313.15 K, w2 = 0.0161	1131.4	1.5044	41.3
318.15 K, w2 = 0.0065	1129.72	1.5044	40.1
318.15 K, w2 = 0.0092	1129.19	1.504	40.4
318.15 K, w2 = 0.0116	1128.78	1.5036	40.6
318.15 K, w2 = 0.0135	1128.43	1.5033	40.8
318.15 K, w2 = 0.0161	1127.95	1.5028	41.1
323.15 K, w2 = 0.0065	1126.27	1.5029	39.8
323.15 K, w2 = 0.0092	1125.8	1.5024	40.1
323.15 K, w2 = 0.0116	1125.32	1.5021	40.4
323.15 K, w2 = 0.0135	1124.96	1.5018	40.6
323.15 K, w2 = 0.0161	1124.48	1.5013	40.9
328.15 K, w2 = 0.0065	1122.82	1.5015	39.5
328.15 K, w2 = 0.0092	1122.34	1.5011	39.8
328.15 K, w2 = 0.0116	1121.86	1.5007	40.1
328.15 K, w2 = 0.0135	1121.5	1.5004	40.4
328.15 K, w2 = 0.0161	1121	1.4999	40.7
